Read-outs that look alike come from different tables or passages of the source.
Key:
[1] = system: β-lactamase expressing E. coli; assay: broth microdilution MIC of cefiderocol +/- Compound 1, E. coli strains; format: cell-based; conditions: Escherichia coli
[2] = system: β-lactamase expressing K. pneumoniae; assay: broth microdilution MIC of cefiderocol +/- Compound 1, K. pneumoniae strains; format: cell-based; conditions: Klebsiella pneumoniae
MDR-Acinetobacter = assay: broth microdilution MIC of cefiderocol +/- Compound 1 in IDM, panel of 40 MDR Acinetobacter; format: cell-based, A. baumannii; conditions: for MIC: read-out: Minimum inhibitory concentration (MIC)
[3] = system: metallo- and serine-β-lactamase expressing CRE; assay: checkerboard assay of cefiderocol and Compound 1 in IDM, 22 CRE isolates; format: cell-based, Enterobacteriaceae; conditions: Compound 1 0 μg/mL
[4] = Acinetobacter baumannii, panel of 40 MDR Acinetobacter, IDM

## CC(C)(O/N=C(\C(=O)N[C@@H]1C(=O)N2C(C(=O)[O-])=C(C[N+]3(CCNC(=O)c4ccc(O)c(O)c4Cl)CCCC3)CS[C@H]12)c1csc(N)n1)C(=O)O [FDC, cefiderocol]
[1]; read-out: Minimum inhibitory concentration (MIC), E. coli 128 (AmpC, SHV-12, TOHO-2, TEM-1), IDM
  MIC: 0.5 µg/mL
[1]; read-out: Minimum inhibitory concentration (MIC), E. coli 128 (AmpC, SHV-12, TOHO-2, TEM-1), MHBII
  MIC: 2 µg/mL
[1]; read-out: Minimum inhibitory concentration (MIC), E. coli 3073 (AmpC, CTX-M3), IDM
  MIC: 0.5 µg/mL
[1]; read-out: Minimum inhibitory concentration (MIC), E. coli 3073 (AmpC, CTX-M3), MHBII
  MIC: 8 µg/mL
[1]; read-out: Minimum inhibitory concentration (MIC), E. coli 3327 (TEM-1, SHV-12), IDM
  MIC: 0.125 µg/mL
[1]; read-out: Minimum inhibitory concentration (MIC), E. coli 3327 (TEM-1, SHV-12), MHBII
  MIC: 0.5 µg/mL
[1]; read-out: Minimum inhibitory concentration (MIC), E. coli 786978 (KPC 2), IDM
  MIC: 0.25 µg/mL
[1]; read-out: Minimum inhibitory concentration (MIC), E. coli 786978 (KPC 2), MHBII
  MIC: 4 µg/mL
[1]; read-out: Minimum inhibitory concentration (MIC), E. coli 787112 (OXA 48), IDM
  MIC: 64 µg/mL
[1]; read-out: Minimum inhibitory concentration (MIC), E. coli 787112 (OXA 48), MHBII
  MIC: 64 µg/mL
[1]; read-out: Minimum inhibitory concentration (MIC), E. coli CDC-61 (KPC-3 TEM-1), IDM
  MIC: 0.125 µg/mL
[1]; read-out: Minimum inhibitory concentration (MIC), E. coli CDC-61 (KPC-3 TEM-1), MHBII
  MIC: 0.25 µg/mL
[1]; read-out: Minimum inhibitory concentration (MIC), E. coli CDC-114 (KPC-3), IDM
  MIC: 0.5 µg/mL
[1]; read-out: Minimum inhibitory concentration (MIC), E. coli CDC-114 (KPC-3), MHBII
  MIC: 4 µg/mL
[1]; read-out: Minimum inhibitory concentration (MIC), E. coli CDC-150 (NDM-5), IDM
  MIC: 4 µg/mL
[1]; read-out: Minimum inhibitory concentration (MIC), E. coli CDC-150 (NDM-5), MHBII
  MIC: 128 µg/mL
[1]; read-out: Minimum inhibitory concentration (MIC), E. coli GUE 131 (NDM-1), IDM
  MIC: 1 µg/mL
[1]; read-out: Minimum inhibitory concentration (MIC), E. coli GUE 131 (NDM-1), MHBII
  MIC: 2 µg/mL
[1]; read-out: Minimum inhibitory concentration (MIC), E. coli SI-151 (VIM-1), IDM
  MIC: 0.125 µg/mL
[1]; read-out: Minimum inhibitory concentration (MIC), E. coli SI-151 (VIM-1), MHBII
  MIC: 0.5 µg/mL
[1]; read-out: Minimum inhibitory concentration (MIC), E. coli SI-152 (NDM-1), IDM
  MIC: 0.125 µg/mL
[1]; read-out: Minimum inhibitory concentration (MIC), E. coli SI-152 (NDM-1), MHBII
  MIC: 0.125 µg/mL
[1]; read-out: Minimum inhibitory concentration (MIC), E. coli SI-155S (VIM-1), IDM
  MIC: 1 µg/mL
[1]; read-out: Minimum inhibitory concentration (MIC), E. coli SI-155S (VIM-1), MHBII
  MIC: 2 µg/mL
[1]; read-out: Minimum inhibitory concentration (MIC), E. coli SI-P026TC (CMY-2, TEM-1), IDM
  MIC: 0.125 µg/mL
[1]; read-out: Minimum inhibitory concentration (MIC), E. coli SI-P026TC (CMY-2, TEM-1), MHBII
  MIC: 0.25 µg/mL
[2]; read-out: Minimum inhibitory concentration (MIC), K. pneummoniae CDC-34 (IMP), IDM
  MIC: 0.125 µg/mL
[2]; read-out: Minimum inhibitory concentration (MIC), K. pneummoniae CDC-34 (IMP), MHBII
  MIC: 2 µg/mL
[2]; read-out: Minimum inhibitory concentration (MIC), K. pneummoniae CDC-40 (VIM), IDM
  MIC: 1 µg/mL
[2]; read-out: Minimum inhibitory concentration (MIC), K. pneummoniae CDC-40 (VIM), MHBII
  MIC: 2 µg/mL
[2]; read-out: Minimum inhibitory concentration (MIC), K. pneummoniae CDC-41 (NDM), IDM
  MIC: 8 µg/mL
[2]; read-out: Minimum inhibitory concentration (MIC), K. pneummoniae CDC-41 (NDM), MHBII
  MIC: 128 µg/mL
[2]; read-out: Minimum inhibitory concentration (MIC), K. pneummoniae CDC-140 (OXA-181), IDM
  MIC: 0.25 µg/mL
[2]; read-out: Minimum inhibitory concentration (MIC), K. pneummoniae CDC-140 (OXA-181), MHBII
  MIC: 0.5 µg/mL
[2]; read-out: Minimum inhibitory concentration (MIC), K. pneummoniae CDC-153 (NDM, OXA-232), IDM
  MIC: 0.06 µg/mL
[2]; read-out: Minimum inhibitory concentration (MIC), K. pneummoniae CDC-153 (NDM, OXA-232), MHBII
  MIC: 32 µg/mL
[2]; read-out: Minimum inhibitory concentration (MIC), K. pneumoniae 847204 (KPC-2), IDM
  MIC: 0.5 µg/mL
[2]; read-out: Minimum inhibitory concentration (MIC), K. pneumoniae 847204 (KPC-2), MHBII
  MIC: 16 µg/mL
[2]; read-out: Minimum inhibitory concentration (MIC), K. pneumoniae 847375 (SHV-12, KPC-2), IDM
  MIC: 2 µg/mL
[2]; read-out: Minimum inhibitory concentration (MIC), K. pneumoniae 847375 (SHV-12, KPC-2), MHBII
  MIC: 32 µg/mL
[2]; read-out: Minimum inhibitory concentration (MIC), K. pneumoniae 847747 (CTX-M-2, KPC), IDM
  MIC: 0.125 µg/mL
[2]; read-out: Minimum inhibitory concentration (MIC), K. pneumoniae 847747 (CTX-M-2, KPC), MHBII
  MIC: 8 µg/mL
[2]; read-out: Minimum inhibitory concentration (MIC), K. pneumoniae KIRK (OXA-162), IDM
  MIC: 0.25 µg/mL
[2]; read-out: Minimum inhibitory concentration (MIC), K. pneumoniae KIRK (OXA-162), MHBII
  MIC: 32 µg/mL
[2]; read-out: Minimum inhibitory concentration (MIC), K. pneumoniae KPC157 (KPC-3), IDM
  MIC: 0.5 µg/mL
[2]; read-out: Minimum inhibitory concentration (MIC), K. pneumoniae KPC157 (KPC-3), MHBII
  MIC: 8 µg/mL
[2]; read-out: Minimum inhibitory concentration (MIC), K. pneumoniae KPC261 (KPC-2), IDM
  MIC: 0.5 µg/mL
[2]; read-out: Minimum inhibitory concentration (MIC), K. pneumoniae KPC261 (KPC-2), MHBII
  MIC: 16 µg/mL
[2]; read-out: Minimum inhibitory concentration (MIC), K. pneumoniae OMAN 13 (NDM-1), IDM
  MIC: 2 µg/mL
[2]; read-out: Minimum inhibitory concentration (MIC), K. pneumoniae OMAN 13 (NDM-1), MHBII
  MIC: 32 µg/mL
[2]; read-out: Minimum inhibitory concentration (MIC), K. pneumoniae SI-117 (VIM-1), IDM
  MIC: 4 µg/mL
[2]; read-out: Minimum inhibitory concentration (MIC), K. pneumoniae SI-117 (VIM-1), MHBII
  MIC: 16 µg/mL
MDR-Acinetobacter; A. baumannii 157076, IDM
  Minimum inhibitory concentration (MIC): 0.125 µg/mL
MDR-Acinetobacter; A. baumannii 157078, IDM
  Minimum inhibitory concentration (MIC): 0.125 µg/mL
MDR-Acinetobacter; A. baumannii 161761, IDM
  Minimum inhibitory concentration (MIC): 0.125 µg/mL
MDR-Acinetobacter; A. baumannii 163264, IDM
  Minimum inhibitory concentration (MIC): 0.125 µg/mL
MDR-Acinetobacter; A. baumannii 164890, IDM
  Minimum inhibitory concentration (MIC): 0.125 µg/mL
MDR-Acinetobacter; A. baumannii 164891, IDM
  Minimum inhibitory concentration (MIC): 0.125 µg/mL
MDR-Acinetobacter; A. baumannii 165039, IDM
  Minimum inhibitory concentration (MIC): 0.125 µg/mL
MDR-Acinetobacter; A. baumannii CDC-0056, IDM
  Minimum inhibitory concentration (MIC): 0.125 µg/mL
MDR-Acinetobacter; Acinetobacter baumannii, A. baumannii 0045, IDM
  MIC: 0.5 µg/mL
MDR-Acinetobacter; Acinetobacter baumannii, A. baumannii 157070, IDM
  MIC: 0.25 µg/mL
MDR-Acinetobacter; Acinetobacter baumannii, A. baumannii 157071, IDM
  MIC: 0.03 µg/mL
MDR-Acinetobacter; Acinetobacter baumannii, A. baumannii 157072, IDM
  MIC: 0.25 µg/mL
MDR-Acinetobacter; Acinetobacter baumannii, A. baumannii 157074, IDM
  MIC: 0.06 µg/mL
MDR-Acinetobacter; Acinetobacter baumannii, A. baumannii 157079, IDM
  MIC: 0.5 µg/mL
MDR-Acinetobacter; Acinetobacter baumannii, A. baumannii 157865, IDM
  MIC: 4 µg/mL
MDR-Acinetobacter; Acinetobacter baumannii, A. baumannii 161754, IDM
  MIC: 0.25 µg/mL
MDR-Acinetobacter; Acinetobacter baumannii, A. baumannii 161763, IDM
  MIC: 0.5 µg/mL
MDR-Acinetobacter; Acinetobacter baumannii, A. baumannii 163169, IDM
  MIC: 0.03 µg/mL
MDR-Acinetobacter; Acinetobacter baumannii, A. baumannii 164899, IDM
  MIC: 0.25 µg/mL
MDR-Acinetobacter; Acinetobacter baumannii, A. baumannii CDC-0033, IDM
  MIC: 0.5 µg/mL
MDR-Acinetobacter; Acinetobacter baumannii, A. baumannii CDC-0035, IDM
  MIC: 0.25 µg/mL
MDR-Acinetobacter; Acinetobacter baumannii, A. baumannii CDC-0036, IDM
  MIC: 1 µg/mL
MDR-Acinetobacter; Acinetobacter baumannii, A. baumannii CDC-0037, IDM
  MIC: 4 µg/mL
MDR-Acinetobacter; Acinetobacter baumannii, A. baumannii CDC-0052, IDM
  MIC: 8 µg/mL
MDR-Acinetobacter; Acinetobacter baumannii, A. baumannii CDC-0063, IDM
  MIC: 0.5 µg/mL
MDR-Acinetobacter; Acinetobacter baumannii, A. baumannii CDC-0070, IDM
  MIC: 0.25 µg/mL
MDR-Acinetobacter; Acinetobacter baumannii, A. baumannii CDC-0078, IDM
  MIC: 0.5 µg/mL
MDR-Acinetobacter; Acinetobacter baumannii, A. baumannii CDC-0083, IDM
  MIC: 1 µg/mL
MDR-Acinetobacter; Acinetobacter baumannii, A. baumannii CDC-0088, IDM
  MIC: 8.1 µg/mL
MDR-Acinetobacter; Acinetobacter baumannii, A. baumannii CDC-0101, IDM
  MIC: 0.06 µg/mL
MDR-Acinetobacter; Acinetobacter baumannii, A. baumannii CDC-0102, IDM
  MIC: 1 µg/mL
MDR-Acinetobacter; Acinetobacter baumannii, A. baumannii GM235, IDM
  MIC: 1 µg/mL
MDR-Acinetobacter; Acinetobacter baumannii, A. baumannii GM236, IDM
  MIC: 0.03 µg/mL
MDR-Acinetobacter; Acinetobacter baumannii, A. baumannii GM237, IDM
  MIC: 0.25 µg/mL
MDR-Acinetobacter; Acinetobacter baumannii, A. baumannii GM238, IDM
  MIC: 0.25 µg/mL
MDR-Acinetobacter; Acinetobacter baumannii, A. baumannii GM239, IDM
  MIC: 2 µg/mL
MDR-Acinetobacter; Acinetobacter baumannii, A. baumannii SI-141, IDM
  MIC: 4 µg/mL
MDR-Acinetobacter; Acinetobacter baumannii, ATCC17978, A. baumannii ATCC 17978, IDM
  MIC: 0.25 µg/mL
MDR-Acinetobacter; Acinetobacter baumannii, NCTC13301, A. baumannii NCTC 13301, IDM
  MIC: 1 µg/mL
MDR-Acinetobacter; Acinetobacter baumannii
  MIC: 0.125 µg/mL
MDR-Acinetobacter; [4]
  MIC50: 0.25 µg/mL
  MIC90: 4 µg/mL
[3]; cefiderocol 0.06 μg/mL
  % of strains inhibited: 5%
[3]; cefiderocol 0.125 μg/mL
  % of strains inhibited: 5%
[3]; cefiderocol 0.25 μg/mL
  % of strains inhibited: 5%
[3]; cefiderocol 0.5 μg/mL
  % of strains inhibited: 15%
[3]; cefiderocol 1 μg/mL
  % of strains inhibited: 20%
[3]; cefiderocol 2 μg/mL
  % of strains inhibited: 60%
[3]; cefiderocol 4 μg/mL
  % of strains inhibited: 75%
[3]; cefiderocol 8 μg/mL
  % of strains inhibited: 90%
[3]; cefiderocol 16 μg/mL
  % of strains inhibited: 90%
[3]; cefiderocol 32 μg/mL
  % of strains inhibited: 95%

From patent US20220054513A1, “COMBINATION COMPOSITIONS COMPRISING A BETA-LACTAMASE INHIBITOR” (VenatoRx Pharmaceuticals, Inc., priority 2018, published 2022)
